Results taken from patent US20200181101A1, “BENZAMIDE INHIBITORS OF BACTERIAL LIPOPROTEIN SIGNAL PEPTIDASE” (The Scripps Research Institute, priority 2017, published 2020).
“Also recorded” adds a separate entry of the source. Read-outs that look alike come from different tables or passages of the source.

Columns and labels:
E. coli YX23 [1] = details: literature [14]; cited from earlier work
Lsp from E. coli = target: T1, Lsp from E. coli (Escherichia coli, UniProt P00804); experiment: Lsp FRET activity assay, IC50 determination; assay type: biochemical
T1 construct: The full-length Lsp clone from E. coli (residues 1-164); His6 with enterokinase cleavage site (pET19b) (N); made in house; host or cells: E. coli Lemo21 (DE3), pET19b vector
T1 sequence (P00804 whole entry, the tested form may be a part): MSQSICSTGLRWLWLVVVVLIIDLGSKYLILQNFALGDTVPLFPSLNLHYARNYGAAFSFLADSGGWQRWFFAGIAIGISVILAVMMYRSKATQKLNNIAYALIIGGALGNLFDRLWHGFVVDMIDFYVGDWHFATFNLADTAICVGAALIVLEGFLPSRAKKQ
Protocol: […] […] 50 μM Lsp FRET substrate was subsequently added and the rate of substrate hydrolysis was measured by increase in fluorescence (excitation 355 nm, emission 495 nm) in 96-well plates on a PerkinElmer EnVision plate reader or Tecan Safire 2 microplate reader. Michaelis-Menten constants and […] were determined using GraphPad Prism software (GraphPad, Inc.).

E. coli (ATCC25922) = experiment: Bacteria growth assay, E. coli ATCC25922; assay type: cell-based
Protocol: (§1) Effect of compounds on bacterial growth was measured using the method described previously with slight modifications^[1]. Colony suspension method was used to prepare bacteria suspension using McFarland Standard 0.5 to adjust the turbidity. Cells were introduced to two-fold serial dilutions of compound in a final volume of 105 μL with 5% DMSO. Mueller-Hinton broth (MH) or LB broth was used for E. coli ATCC25922 or E. coli DW37 and YX23, respectively. Plates were incubated at 37° C., and the OD600 was measured using a PerkinElmer EnVision plate reader after gentle shaking. Mutant E. coli (DW37 and YX23) were previously described.^[2] Globomycin was used as a positive control and the concentration-response curves of globomycin on bacteria growth (E. coli ATCC25922) is shown below (error bar: SD).

E. coli DW37 = experiment: Bacteria growth assay, isogenic parent strain DW37; assay type: cell-based; set-up: dose or concentration left out as unconfirmed; details: OD600 at 10 h
Protocol: as §1

E. coli YX23 [2] = experiment: Bacteria growth assay, Lsp-inhibition resistant mutant YX23; assay type: cell-based; set-up: dose or concentration left out as unconfirmed; details: OD600 at 24 h
Protocol: as §1

[3] = Table 5, [Lsp] = 20 nM, read-out: IC50

CCCCCCC1OC(=O)CNC(=O)C(C(C)O)NC(=O)C(CO)NC(=O)C(C(C)CC)NC(=O)C(CC(C)C)N(C)C(=O)C1C (stereo not drawn) [Globomycin, globomycin]
resistance of YX23 (E. coli YX23 [1]): resistant

CCC(CC)c1nnc(NC(=O)c2cc(OC)c(OC3CCCC3)cc2[N+](=O)[O-])s1 [1j, 4-(cyclopentyloxy)-5-methoxy-2-nitro-N-(5-(pentan-3-yl)-1,3,4-thiadiazol-2-yl)benzamide]
effect on cleaved substrate fluorescence (Lsp from E. coli): no effect | Hill constant (Lsp from E. coli; [S]=50 μM, [Lsp]=100 nM): approximately 1 | IC50 (Lsp from E. coli; read-out: IC50): 99 nM | bacterial growth, in words (E. coli (ATCC25922); cultures of E. coli): inhibits bacterial growth | growth of DW37 (E. coli DW37): inhibited the growth | growth of YX23 (E. coli YX23 [2]): resistant; also recorded: did not inhibit the growth

COc1cc(C(=O)Nc2nnc(C3CCCCC3)s2)c([N+](=O)[O-])cc1OC [1c, N-(5-cyclohexyl-1,3,4-thiadiazol-2-yl)-4,5-dimethoxy-2-nitrobenzamide]
potency against Lsp, in words (SAR) (Lsp from E. coli): ablated the potency | IC50 (Lsp from E. coli; FRET-based assay, [Lsp] = 400 nM, mean (± SD), read-out: IC50): > 400000 nM | bacterial growth, in words (E. coli (ATCC25922); in combination with PMBN 8 mg/L): did not inhibit the bacterial growth

CCCC1OC(=O)C(C)CC(C)CCCCC(=O)CCCC(CC)/C=C/C=C(\COC)CCC(O)C(O)CC(O)CNC1=O (stereo not drawn) [myxovirescin]
resistance of YX23 (E. coli YX23 [1]): resistant

CCCCCc1nnc(NC(=O)c2cc(OC)c(OC)cc2[N+](=O)[O-])s1 [Sk052-147-2]
IC50 (Lsp from E. coli; Table 2, variation of R3, read-out: IC50): 26000 nM

CCC(CC)c1nnc(NC(=O)c2cc(Cl)c(NC3CCCC3)cc2[N+](=O)[O-])s1 [Sk056-16-1]
IC50 (Lsp from E. coli; [3]): 170 nM

CCC(CC)c1nnc(NC(=O)c2ccc(OS(=O)(=O)F)cc2[N+](=O)[O-])s1 [Sk056-45-1]
IC50 (Lsp from E. coli): 46000 nM

CCC(CC)c1nnc(NC(=O)c2cc(OC)c(OCc3ccccc3)cc2[N+](=O)[O-])s1 [Sk054-82-3]
IC50 (Lsp from E. coli; [3]): 2900 nM

CCC(CC)c1nnc(NC(=O)c2cc(Cl)c(OC3CCCC3)cc2[N+](=O)[O-])s1 [Sk054-116-2]
IC50 (Lsp from E. coli; [3]): 110 ± 12 nM | IC50 (Lsp from E. coli; Table 6, read-out: IC50): 110 ± 12 nM

COC(=O)CCSCCCCCc1nnc(NC(=O)c2cc(Cl)c(OC3CCCC3)cc2[N+](=O)[O-])s1 [Sk056-26]
IC50 (Lsp from E. coli; Table 6, read-out: IC50): 3200 nM
